What was measured:
[1] = test system: ABUTH (Velvetleaf); experiment: Postemergence herbicidal evaluation; type: in vivo, Abutilon theophrasti; conditions: for ABUTH herbicidal rating: postemergence
How it was run: (§1)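 ~2-wk seedlings; postemergence spray, 40 psi; vehicle 1:1 acetone:water + 0.5% Tween 20; rate ≈0.0156–0.500 kg/ha; greenhouse hold; scored 4–5 wk after treatment, 0–9 scale vs control; repeat tests averaged.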

[2] = test system: GALAP (Galium); experiment: Postemergence herbicidal evaluation; type: in vivo, Galium aparine; conditions: for GALAP herbicidal rating: postemergence
How it was run: as §1

[3] = test system: GALAP (Galium); experiment: Preemergence herbicidal evaluation; type: in vivo, Galium aparine; conditions: rated 4-5 weeks after treatment
How it was run: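 Visual 0-9 rating vs control (stand, vigor, malformation, size, chlorosis, overall appearance), scored 4-5 wk after spraying. Seeded soil cups were treated preemergence with compound in aqueous acetone, ~0.0156-0.500 kg/ha equivalent.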

[4] = test system: MOOVA (Monochoria); experiment: Postemergence weed control under flooded paddy conditions; type: in vivo, Monochoria vaginalis; conditions: postemergence weeds, 3-4 weeks after treatment
How it was run: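 Injury ratings (0–9 scale covering stand, vigor, malformation, size, chlorosis and overall appearance versus control) were made three to four weeks after treatment. Test material, about 0.0313 to 0.500 kg/ha a.i. in 50/50 v/v aqueous/acetone, was added to flood water 1.5 to 3 cm deep over 3 to 5 cm weeds and 1.5 to 2.5 leaf rice.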

Structure (SMILES)	ABUTH herbicidal rating ([1]; rate 0.0156 kg/ha)	ABUTH herbicidal rating ([1]; rate 0.0313 kg/ha)	ABUTH herbicidal rating ([1]; rate 0.0625 kg/ha)	ABUTH herbicidal rating ([1]; rate 0.1250 kg/ha)	GALAP herbicidal rating ([2]; rate 0.0156 kg/ha)	GALAP herbicidal rating ([2]; rate 0.0313 kg/ha)	GALAP herbicidal rating ([2]; rate 0.0625 kg/ha)	GALAP herbicidal rating ([2]; rate 0.1250 kg/ha)	GALAP preemergence herbicidal rating ([3]; rate 0.0156 kg/ha)	GALAP preemergence herbicidal rating ([3]; rate 0.0313 kg/ha)	GALAP preemergence herbicidal rating ([3]; rate 0.0625 kg/ha)	GALAP preemergence herbicidal rating ([3]; rate 0.1250 kg/ha)	GALAP preemergence herbicidal rating ([3]; rate 0.2500 kg/ha)	Herbicidal rating MOOVA ([4]; rate 0.0313 kg/ha)	Herbicidal rating MOOVA ([4]; rate 0.0625 kg/ha)	Herbicidal rating MOOVA ([4]; rate 0.1250 kg/ha)	Herbicidal rating MOOVA ([4]; rate 0.2500 kg/ha)	Preemergence herbicidal rating GALAP ([3]; rate 0.0625 kg/ha)	Preemergence herbicidal rating GALAP ([3]; rate 0.1250 kg/ha)	Preemergence herbicidal rating GALAP ([3]; rate 0.2500 kg/ha)	also measured
CCC1SC(=Nc2cc(-n3c(=O)cc(C(F)(F)F)n(C)c3=O)c(F)cc2Cl)N(C)C1=O (centres unmarked) [Compound 10]	9.0	6.5	7.0	9.0	1.0	2.0	3.5	4.5	0.5	2.0	4.5	9.0	9.0	9.0	9.0	9.0	9.0				
CCOC(=O)CN1C(=O)C(F)SC1=Nc1cc(-n2c(=O)cc(C(F)(F)F)n(C)c2=O)c(F)cc1Cl (centres unmarked) [Compound 11, Ethyl 2-{{2-chloro-5-[3,6-dihydro-3-methyl-2,6-dioxo-4-(trifluoromethyl)-1(2H)-pyrimidinyl]-4-fluorophenyl}imino}-5-fluoro-4-oxo-3-thiazolidineacetate]	9.0	9.0	9.0	9.0	3.0	5.0	6.0	6.0	0.0	0.0	0.0	0.0	9.0	0.0	1.0	4.0	7.0				
CCOC(=O)CN1C(=O)C(C)SC1=Nc1cc(-n2c(=O)cc(C(F)(F)F)n(C)c2=O)c(F)cc1Cl (centres unmarked) [Compound 12]	9.0	9.0	9.0	9.0	3.0	5.0	7.0	8.0	0.0	0.0	9.0	9.0	9.0	9.0	9.0	9.0	9.0				
CCOC(=O)CN1C(=O)C(CC)SC1=Nc1cc(-n2c(=O)cc(C(F)(F)F)n(C)c2=O)c(F)cc1Cl (centres unmarked) [Compound 13, Ethyl 2-{{2-chloro-5-[3,6-dihydro-3-methyl-2,6-dioxo-4-(trifluoromethyl)-1(2H)-pyrimidinyl]-4-fluorophenyl}imino}-5-ethyl-4-oxo-3-thiazolidineacetate]	9.0	9.0	9.0	9.0	3.0	3.0	5.0	5.0	0.0	0.0	0.0	0.0	0.0	9.0	9.0	9.0	9.0				
COC(=O)CN1C(=O)CSC1=Nc1cc(-n2c(=O)cc(C(F)(F)F)n(C)c2=O)c(F)cc1Cl [Compound 17, Methyl 2-{{2-chloro-5-[3,6-dihydro-3-methyl-2,6-dioxo-4-(trifluoromethyl)-1(2H)-pyrimidinyl]-4-fluorophenyl}imino}-4-oxo-3-thiazolidineacetate]	9.0	9.0	9.0	9.0	1.5	3.5	5.5	6.0	0.0	0.0	0.0	1.0	9.0	9.0	9.0	9.0	9.0				GALAP preemergence herbicidal rating ([3]; rate 0.5000 kg/ha): 9.0
C=CCN1C(=O)CSC1=Nc1cc(-n2c(=O)cc(C(F)(F)F)n(C)c2=O)c(F)cc1Cl [Compound 27]														9.0	9.0	9.0	9.0	9.0	9.0	9.0	ABUTH herbicidal rating ([1]; rate 0.0158 kg/ha): 9.0; ABUTH herbicidal rating ([1]; rate 0.0315 kg/ha): 9.0; ABUTH herbicidal rating ([1]; rate 0.0630 kg/ha): 9.0; GALAP herbicidal rating ([2]; rate 0.0158 kg/ha): 1.0; GALAP herbicidal rating ([2]; rate 0.0315 kg/ha): 4.0; GALAP herbicidal rating ([2]; rate 0.0630 kg/ha): 4.0; Preemergence herbicidal rating GALAP ([3]; rate 0.0156 kg/ha): 0.0; Preemergence herbicidal rating GALAP ([3]; rate 0.0313 kg/ha): 9.0
COC(=O)CCN1C(=O)CSC1=Nc1cc(-n2c(=O)cc(C(F)(F)F)n(C)c2=O)c(F)cc1Cl [Compound 28, Methyl 2-{{2-chloro-5-[3,6-dihydro-3-methyl-2,6-dioxo-4-(trifluoromethyl)-1(2H)-pyrimidinyl]-4-fluorophenyl}imino}-4-oxo-3-thiazolidinepropionate]														9.0	9.0	9.0	9.0	0.0	0.0	9.0	Postemergence herbicidal rating ABUTH ([1]; Rate 0.0158 kg/ha): 9.0; Postemergence herbicidal rating ABUTH ([1]; Rate 0.0315 kg/ha): 9.0; Postemergence herbicidal rating ABUTH ([1]; Rate 0.0630 kg/ha): 9.0; Postemergence herbicidal rating GALAP ([2]; Rate 0.0158 kg/ha): 3.0; Postemergence herbicidal rating GALAP ([2]; Rate 0.0315 kg/ha): 7.0; Postemergence herbicidal rating GALAP ([2]; Rate 0.0630 kg/ha): 8.0
Cn1c(C(F)(F)F)cc(=O)n(-c2cc(N=C3SCC(=O)N3CC(=O)NS(C)(=O)=O)c(Cl)cc2F)c1=O [Compound 38, 2-{{2-Chloro-5-[3,6-dihydro-3-methyl-2,6-dioxo-4-(trifluoromethyl)-1(2H)-pyrimidinyl]-4-fluoro-phenyl}imino}-N-(methylsulfonyl)-4-oxo-3-thiazolidineacetamide]														9.0	9.0	9.0	9.0	5.0	8.0	9.0	Postemergence herbicidal rating ABUTH ([1]; Rate 0.0156 kg/ha): 9.0; Postemergence herbicidal rating ABUTH ([1]; Rate 0.0313 kg/ha): 9.0; Postemergence herbicidal rating ABUTH ([1]; Rate 0.0625 kg/ha): 9.0; Postemergence herbicidal rating ABUTH ([1]; Rate 0.1250 kg/ha): 9.0; Postemergence herbicidal rating ABUTH ([1]; Rate 0.2500 kg/ha): 9.0; Postemergence herbicidal rating GALAP ([2]; Rate 0.0156 kg/ha): 0.0; Postemergence herbicidal rating GALAP ([2]; Rate 0.0313 kg/ha): 1.0; Postemergence herbicidal rating GALAP ([2]; Rate 0.0625 kg/ha): 3.0; Postemergence herbicidal rating GALAP ([2]; Rate 0.1250 kg/ha): 3.0; Postemergence herbicidal rating GALAP ([2]; Rate 0.2500 kg/ha): 8.0; Preemergence herbicidal rating GALAP ([3]; rate 0.0313 kg/ha): 0.0
CCOC(=O)CN1C(=O)C(CC(=O)OCc2ccccc2)OC1=Nc1cc(-n2c(=O)cc(C(F)(F)F)n(C)c2=O)c(F)cc1Cl (centres unmarked) [Compound 40, 2-{{2-Chloro-5-[3,6-dihydro-3-methyl-2,6-dioxo-4-(trifluoromethyl)-1(2H)-pyrimidinyl]-4-fluorophenyl}imino}-4-oxo-3,5-oxazolidinediacetic acid, 5-benzyl ethyl ester]														9.0	9.0	9.0	9.0	0.0	0.0	0.0	Postemergence herbicidal rating ABUTH ([1]; Rate 0.0158 kg/ha): 9.0; Postemergence herbicidal rating ABUTH ([1]; Rate 0.0315 kg/ha): 9.0; Postemergence herbicidal rating ABUTH ([1]; Rate 0.0630 kg/ha): 9.0; Postemergence herbicidal rating GALAP ([2]; Rate 0.0158 kg/ha): 1.0; Postemergence herbicidal rating GALAP ([2]; Rate 0.0315 kg/ha): 2.0; Postemergence herbicidal rating GALAP ([2]; Rate 0.0630 kg/ha): 4.0; Preemergence herbicidal rating GALAP ([3]; rate 0.0313 kg/ha): 0.0

— patent publication US20020137929A1, “1 - (3-heterocyclylphenyl) isothiourea, -isourea, -guanidine and -amidine herbicidal agents” (Intellectual Property Department, BASF Aktiengesellschaft, priority 1998, published 2002)
